Data set [1] concerns human-derived tracheal/bronchial epithelial cells (EpiAirway Tissue Model). The experiment in a line: Transepithelial electrical resistance (TER) of an epithelial cell monolayer. Format: cell-based. The conditions noted are these: for activity at 1000 µM: Homo sapiens, Epithelial cell, 1 h, read-out: Mean % of Original TER Value. As for the experimental part: Inserts are feed for each day of recovery. TER measurements were accomplished using the Endohm-12 Tissue Resistance Measurement Chamber connected to the EVOM Epithelial Voltohmmeter (World Precision Instruments, Sarasota, Fla.) with the electrode leads. The electrodes and a tissue culture blank insert were equilibrated for at least 20 minutes in MatTek medium with the power off prior to checking calibration. The background resistance was measured with 1.5 ml media in the Endohm tissue chamber and 300 μl media in the blank insert. The top electrode was adjusted so that it was close to, but not making contact with, the top surface of the insert membrane. Background resistance of the blank insert was about 5-20 ohms. […] TER values are a function of the surface area of the tissue. […] By this method of calculation, TER will be expressed as both Ohms*cm2 and percent original TER value. […] Several different lipid types (see Table 1) were screened to select for lipids that are capable of enhancing the permeation of a biological agent across an epithelial cell monolayer. […] A reduction in TER correlates with the ability to enhance the permeation of a molecule and biological agent across an epithelia.

Data set [2] shares this test system. Nature of the data set: in vitro. As for the experimental part:
Normal, human-derived tracheal/bronchial epithelial cells will serve as the model cell system for assessing the lipids listed in Table 1. The cells are supplied by MatTek Corp. (Ashland, Mass.) as the EpiAirway™ Tissue Model. The cells are provided as a confluent monolayer on a Millipore Milicell-CM cell culture insert with a pore size of 0.4 μM, inner diameter of 0.8 cm and surface area of 0.6 cm^2 and comprised of transparent hydrophilic Teflon (PTFE). Upon receipt, the membranes are cultured in 1 ml basal media (phenol red-free and hydrocortisone-free Dulbecco's Modified Eagle's Media (DMEM) at 37° C./5% CO2 for 24-48 hours before use. Inserts are feed for each day of recovery.
The amount of cell death was assayed by measuring the loss of lactate dehydrogenase (LDH) from the cells using a CytoTox 96 Cytotoxicity Assay Kit (Promega Corp., Madison, Wis.). A treatment of 1% Octylphenolpoly(ethyleneglycolether)x (Triton X-100™) diluted in PBS was used as a lysis control. One percent Triton X-100™ mediated cell lysis was normalized to 100%. For basal-lateral LDH levels, triplicates of 50 μl of the basal media were loaded into a 96-well assay plate. For apical LDH levels, 150 μl of Epi-Cm was added to the apical side of each chamber and mixed by pipeting. One hundred and fifty microliters was then removed and diluted 2-fold prior to performing the LDH assay. All apical LDH assay were performed in triplicate and with 50 μl of the diluted test solution. Fresh, cell-free culture medium will be used as a blank. Total LDH levels were determined by lysing cells in a final concentration of 0.9% Triton-X100™. Fifty microliters of substrate solution was added to each well and the plates incubated for 30 minutes at room temperature in the dark. Following incubation, 50 μl of stop solution was added to each well and the plates read on an optical density plate reader at […]. Cytotoxicity was expressed as a percentage calculated by subtracting the average absorbance of the PBS control wells as the endogenously released LDH level and expressing that value relative to the average Triton-X100 control, which represents total LDH content. [formula] Osmolality
For the instant application, phosphate buffered saline (PBS) served as a negative control for both the TER assay and LDH (cytotoxicity) assay. […] TER measurements and LDH levels were taken immediately after a one hour treatment of the cultured cells with each lipid, unless specified otherwrise.
TER reduction was expressed as the percent decrease in TER value from time zero to one hour post-treatment. Thus, greater percent reduction in TER represents less electrical resistance across the epithelial cell monolayer and consequently greater epithelial cell permeation. Cytotoxicity (LDH levels) for each lipid was expressed as a percent of the LDH levels measured after Triton-X100 treatment of the cells. Triton-X100™ LDH levels were normalized to 100%.

Data set [3] shares this test system. The experiment in a line: FITC-Dextran permeation assay across epithelial cell monolayer. The conditions noted are these: for Mean % FD3 Permeation: FITC-dextran 3000 (Table 4); for permeation of FD3 relative to negative controls: text summary of Table 4. Format: cell-based. As for the experimental part: Each tissue insert was placed in an individual well containing 1 ml of MatTek basal media. On the apical surface of the inserts, 20 μl of test formulation was applied according to study design, and the samples were placed on a shaker (˜100 rpm) for 1.5 hours at 37° C. FITC-labeled dextran solution was added to inserts apically and a fluorescence measurement was taken from the basolateral media after the incubation period. Two hundred microliters of the basal media for each test formulation was transferred to a dark-wall fluorescent reading plate. Each test formulation was tested in triplicate. Fluorescent intensity was measured at 470 nM with the microplate fluorescence reader FLx800 (Bio-Tek Instruments, Inc., Winooski, Vt.). A FITC labeled dextran with a molecular weight of 3 kDA, 10 kDA, 20 kDA, 40 kDA, 70 kDA and/or 500 kDA was used to assess the ability of individual lipids to deliver a model protein across an epithelia.
Permeation is expressed as percent permeation and was calculated as follows: [formula] [formula] Terms
PBS and 0.3% Triton-X100™ served as […]. […] FD permeation was presented as the percent of FD that crossed from the apical side of the epithelial cell monolayer to the basolateral cell surface.

Setting [4] is: lipid 1000 μM, percent decrease in TER from time zero.
[5] abbreviates: lipid 1000 μM, percent of Triton-X100 LDH levels.
[6] abbreviates: lipid 125 μM, percent of Triton-X100 LDH levels.
The mark [7] stands for this setting: lipid 250 μM, percent of Triton-X100 LDH levels.
Setting [8] is: lipid 500 μM, percent of Triton-X100 LDH levels.
The mark [9] stands for this setting: lipid 1000 μM, lower value = greater TER reduction (Table 4).
Setting [10] is: positive controls, concentration N/A (Special Sauce; 0.3% Triton-X100).
Setting [11] is: positive controls: Special Sauce 1X, 1% Triton (Table 4).

Turning to “1,3-Di(3-sn-Phosphatidyl)-sn-Glycerol Disodium Salt [Cardiolipin (sodium salt)]”, the “Mean TER Reduction 1 hr. Post-treatment” value in data set [1] (setting [4]) was found to be 32%. In addition, the “Cytotoxic Effect (LDH) 1 hr. Post-treatments” value in data set [2] (setting [5]) was found to be 21%.
In the same order, the values of “1-Alkyl-2-Acetoyl-sn-Glycero-3-Phosphocholine [Platelet-Activation Factor]” are 35% and 19%.
“1-Alkyl-2-Hydroxy-sn-Glycero-3-Phosphocholine [Lyso-Platelet-Activation Factor]”: the “Mean TER Reduction 1 hr. Post-treatment” value in data set [1] (lipid 62.5 μM) turned out to be 48%; in data set [1] (lipid 125 μM) it was 23%; in data set [1] (lipid 250 μM) it was 29%; in data set [1] (lipid 500 μM), 61%; in data set [1] (setting [4]), 84%. Besides, the “Cytotoxic Effect (LDH) 1 hr. Post-treatments” value turned out to be 2% in data set [2] (lipid 62.5 μM, percent of Triton-X100 LDH levels); 3% in data set [2] (setting [6]); 6% in data set [2] (setting [7]); 22% in data set [2] (setting [8]); 34% in data set [2] (setting [5]).
Turning to `CCCCCCCCCCCCCCCCOC[C@H](COP(=O)(O)OCC[N+](C)(C)C)OCC` [2-O-Ethyl-PAF, 1-O-Hexadecyl-2-O-Ethyl-sn-Glycero-3-Phosphorylcholine], the entries for the “Mean % of Original TER Value” in data set [1] (lipid 500 μM (Table 4)) and in data set [1] (setting [9]) were 112% and 70%, respectively. Also, the “Mean % Relative Cytotoxic Effect (LDH)” value in data set [2] (lipid 500 μM (Table 4)) is listed as 1%; in data set [2] (lipid 1000 μM (Table 4)) it was 2%. Besides, the “Mean % FD3 Permeation” value in data set [3] (lipid 500 μM) is listed as 1%; in data set [3] (lipid 1000 μM), 2%. The “permeation of FD3 relative to negative controls” value in data set [3] is listed as “enhanced the permeation of FD3 above that of the negative controls”.
For `CCCCCCCCCCCCCCCCOC[C@H](COP(=O)(O)OCC[N+](C)(C)C)OC` [2-O-Methyl-PAF, 1-O-Hexadecyl-2-O-Methyl-sn-Glycero-3-Phosphorylcholine], the figures for the “Mean % of Original TER Value” in data set [1] (lipid 500 μM (Table 4)) and in data set [1] (setting [9]) were 8% and 2%, respectively. For the same compound, the “Mean % Relative Cytotoxic Effect (LDH)” value is 18% in data set [2] (lipid 500 μM (Table 4)) and 20% in data set [2] (lipid 1000 μM (Table 4)). Moreover, the “Mean % FD3 Permeation” value in data set [3] (lipid 500 μM) is listed as 7%; in data set [3] (lipid 1000 μM) it was 16%. The “permeation of FD3 relative to negative controls” value in data set [3] is “enhanced the permeation of FD3 above that of the negative controls”.
`CCCCCCCCCCCCCCCC(=O)OC[C@H](COP(=O)([O-])OCC[N+](C)(C)C)OC(C)=O` [16:0-02:0 PC, 1-Palmitoyl-2-Acetoyl-sn-Glycero-3-Phosphocholine]: in data set [1] (setting [9]), the activity at 1000 µM worked out at 25%. The “Mean % Relative Cytotoxic Effect (LDH)” value in data set [2] (lipid 1000 μM (Table 4)) was determined as 23%. The “Mean % FD3 Permeation” value in data set [3] (lipid 1000 μM) is reported as 8%.
For the compound `CCCCCCCCCCCCCCCCOC[C@@H](O)COP(=O)([O-])OCC[N+](C)(C)C` [C16 Lyso-PAF, 1-O-Hexadecyl-2-Hydroxy-sn-Glycero-3-Phosphocholine], in data set [1] (setting [9]), the activity at 1000 µM is 14%. Also, the “Mean % Relative Cytotoxic Effect (LDH)” value in data set [2] (lipid 1000 μM (Table 4)) is 26%. Besides, in data set [3] (lipid 1000 μM), the “% FITC-Dextran Permeation FD10” value amounted to 6%, the “% FITC-Dextran Permeation FD40” value came out at 2% and the “Mean % FD3 Permeation” value is 6%. The “% FITC-Dextran Permeation FD3” value in data set [3] (lipid 1000 μM (Table 5)) came out at 8%. In data set [3], the “permeation of FD3 relative to negative controls” value is “enhanced the permeation of FD3 above that of the negative controls”.
Take `CCCCCCCCCCCCCCCCOC[C@H](CO)OC(C)=O` [C16-02:0 DG, 1-O-Hexadecyl-2-Acetoyl-sn-Glycerol]: the activity at 1000 µM in data set [1] (setting [9]) stood at 98%. For the same compound, the “Mean % Relative Cytotoxic Effect (LDH)” value in data set [2] (human, 1 h, 1000 μM) is −3%. Besides, the “Mean % FD3 Permeation” value in data set [3] (lipid 1000 μM) was found to be 0%.
With `CCCCCCCCCCCCCCCCOC[C@H](COP(=O)([O-])OCC[N+](C)(C)C)OC(=O)CCC` [C16-04:0 PC, 1-O-Hexadecyl-2-Butyroyl-sn-Glycero-3-Phosphocholine], the activity at 1000 µM in data set [1] (setting [9]) is 0%. Moreover, the “Mean % Relative Cytotoxic Effect (LDH)” value in data set [2] (human, 1 h, 1000 μM) is 22%. Also, the “Mean % FD3 Permeation” value in data set [3] (lipid 1000 μM) was 7%. For the same compound, in data set [3], the “permeation of FD3 relative to negative controls” value was “enhanced the permeation of FD3 above that of the negative controls”.
Consider `CCCCCCCCCCCCC/C=C/[C@@H](O)[C@@H](N)CO[C@@H]1O[C@H](CO)[C@H](O)[C@H](O)[C@H]1O` [Galactosyl sphingosine, D-Galactosyl-β1-1′-D-erythro-Sphingosine], for which the “Mean TER Reduction 1 hr. Post-treatment” value is on record as 36% in data set [1] (lipid 125 μM), 43% in data set [1] (lipid 250 μM), 42% in data set [1] (lipid 500 μM) and 91% in data set [1] (setting [4]). In addition, the “Cytotoxic Effect (LDH) 1 hr. Post-treatments” value in data set [2] (setting [6]) worked out at 2%; in data set [2] (setting [7]), 3%; in data set [2] (setting [8]), 2%; in data set [2] (setting [5]), 26%.
As for `CCCCCCCCCCCCC/C=C/[C@@H](O)[C@H](COP(=O)(O)O)NC(C)=O.N` [N-acetoyl ceramide-1-phosphate, (2S,3R,4E)-2-Acetoylaminooctadec-4-Ene-1,3-Diol-1-Phosphate (Ammonium Salt)], the “Mean TER Reduction 1 hr. Post-treatment” value is 24% in data set [1] (lipid 125 μM), 23% in data set [1] (lipid 250 μM), 29% in data set [1] (lipid 500 μM) and 42% in data set [1] (setting [4]). Also, the “Cytotoxic Effect (LDH) 1 hr. Post-treatments” value in data set [2] (setting [6]), in data set [2] (setting [7]), in data set [2] (setting [8]) and in data set [2] (setting [5]) was 2% throughout.
Regarding “Octylphenolpoly(ethyleneglycolether)x [Triton-X100, reference compound]”, the “% of the original TER value” in data set [1] (controls of the further test of lipids at 250 μM to 1000 μM (b219-b220)) was −6%. Further, the “Mean TER Reduction 1 hr. Post-treatment” value in data set [1] (setting [10]) is 100%. Moreover, the “Mean % of Original TER Value” in data set [1] (setting [11]) was −7%. Also, the “% Relative Cytotoxic Effect (LDH)” value in data set [2] (in the presence of FITC-Dextran FD3 (Table 6)) was 99%. Also, in data set [2] (setting [10]), the “Cytotoxic Effect (LDH) 1 hr. Post-treatments” value was 100%. Also, the “Mean % Relative Cytotoxic Effect (LDH)” value in data set [2] (setting [11]) is 100%. Besides, in data set [2] (treatment alone, no lipid, apical LDH release (Table 8), Triton 0.3%), the “% Cytotoxicity” value was found to be 100%.

The values are drawn from patent publication US20070077283A1, “METHOD OF ENHANCING TRANSMUCOSAL DELIVERY OF THERAPEUTIC COMPOUNDS” (Nastech Pharmaceutical Company Inc., priority 2005, published 2007).
